# Measured values taken from the supplement of paper PMC10307832.
# How the values were obtained:
# Assay in all cases: relative viability (nuclei count vs DMSO), 5 days (fraction); higher = more cells survive
# [1] = compound: C1=CC(=CC=C1C2=CC(=C(S2)NC(=O)N)C(=O)N)F [TPCA-1] + CCNC(=O)c1noc(-c2cc(C(C)C)c(O)cc2O)c1-c1ccc(CN2CCOCC2)cc1 [Luminespib] (partner 0.01 µM)
# How it was run: (§1)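 One day after seeding in 1536-well plates, lung cancer cell lines were dosed by pin tool. Dosing was either single-drug or a fixed anchor-drug dose plus five library-drug doses (not always all listed) in √10 steps. After 5 days, nuclei were stained in one fix-and-stain step and counted on 4× images, and relative viability is the nuclei count of treated wells over that of vehicle wells, given as the median of duplicate plates.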
# [2] = compound: C[C@]12O[C@H](C[C@]1(O)CO)n1c3ccccc3c3c4c(c5c6ccccc6n2c5c31)CNC4=O [Lestaurtinib] + CCNC(=O)c1noc(-c2cc(C(C)C)c(O)cc2O)c1-c1ccc(CN2CCOCC2)cc1 [Luminespib] (partner 0.01 µM)
# How it was run: as §1
# [3] = compound: C[C@]12O[C@H](C[C@]1(O)CO)n1c3ccccc3c3c4c(c5c6ccccc6n2c5c31)CNC4=O [Lestaurtinib] + C[C@@H](Oc1cc(-c2cnn(C3CCNCC3)c2)cnc1N)c1c(Cl)ccc(F)c1Cl [Crizotinib] (partner 1 µM)
# How it was run: as §1
# [4] = compound: C[C@]12O[C@H](C[C@]1(O)CO)n1c3ccccc3c3c4c(c5c6ccccc6n2c5c31)CNC4=O [Lestaurtinib] + N=C(N)NC(=N)NCCc1ccccc1 [Phenformin] (partner 250 µM)
# How it was run: as §1
Cell Line,relative viability ([1]; first compound 0.04 µM),relative viability ([1]; first compound 0.1265 µM),relative viability ([1]; first compound 0.4 µM),relative viability ([1]; first compound 1.265 µM),relative viability ([1]; first compound 4 µM),relative viability ([2]; first compound 0.005 µM),relative viability ([2]; first compound 0.01581 µM),relative viability ([2]; first compound 0.05 µM),relative viability ([2]; first compound 0.1581 µM),relative viability ([2]; first compound 0.5 µM),relative viability ([3]; first compound 0.005 µM),relative viability ([3]; first compound 0.01581 µM),relative viability ([3]; first compound 0.05 µM),relative viability ([3]; first compound 0.1581 µM),relative viability ([3]; first compound 0.5 µM),relative viability ([4]; first compound 0.005 µM),relative viability ([4]; first compound 0.01581 µM),relative viability ([4]; first compound 0.05 µM),relative viability ([4]; first compound 0.1581 µM),relative viability ([4]; first compound 0.5 µM)
NCI-H838,0.349,0.398,0.235,0.268,0.223,0.321,0.321,0.284,0.227,0.197,0.78,0.803,0.71,0.465,0.158,0.508,0.543,0.475,0.227,0.131
NCI-H1666,1.03,0.99,1.08,1.04,1.05,1.05,1.14,1.46,0.959,0.609,1.04,1.38,1.39,0.96,0.409,0.613,0.617,0.668,0.561,0.389
NCI-H1944,0.872,0.663,0.71,0.626,0.513,0.716,0.784,0.773,0.54,0.302,1.13,1.28,0.745,0.695,0.362,0.194,0.209,0.164,0.133,0.132
NCI-H2023,0.993,0.91,0.779,0.472,0.373,0.848,0.983,0.48,0.524,0.119,0.635,0.619,0.723,0.654,0.113,0.451,0.451,0.343,0.344,0.144
NCI-H1755,0.596,0.408,0.357,0.35,0.418,0.41,0.42,0.453,0.211,0.204,0.865,0.645,0.724,0.438,0.268,0.663,0.648,0.462,0.336,0.287
NCI-H23,0.199,0.208,0.219,0.196,0.193,0.241,0.217,0.242,0.184,0.188,0.466,0.495,0.401,0.546,0.233,0.835,0.756,0.762,0.813,0.457
ABC-1,1.24,0.477,0.34,0.665,0.47,,0.323,0.445,0.331,0.178,1.15,1.58,0.92,0.882,0.26,0.251,0.252,0.243,0.199,0.166
201T,1.1,1.07,1.07,1.05,0.967,1.16,1.07,1.14,1.09,0.357,1.09,1.03,1.08,1.08,0.903,0.467,0.491,0.363,0.418,0.278
NCI-H1734,0.192,0.201,0.221,0.19,0.162,0.2,0.0895,0.185,0.159,0.155,0.741,0.649,0.538,0.424,0.205,0.385,0.391,0.255,0.208,0.18
NCI-H520,0.197,0.215,0.203,0.246,0.213,0.226,0.202,0.234,0.217,0.244,0.653,0.687,0.332,0.42,0.344,0.648,0.744,0.44,0.313,0.2
NCI-H1650,0.225,,0.188,0.185,0.197,0.183,0.195,0.188,0.164,0.18,0.901,1.13,0.841,1.29,0.308,0.419,0.511,0.424,0.373,0.151
NCI-H1355,0.788,0.747,0.841,0.715,0.465,0.646,0.625,0.455,0.493,0.261,1.29,1.09,1.01,0.86,0.549,0.455,0.465,0.374,0.391,0.263
NCI-H1915,0.883,0.804,0.754,0.852,0.581,0.766,0.893,0.471,0.663,0.259,0.914,1.1,0.816,0.848,0.357,0.349,0.37,0.311,0.34,0.204
BEN,0.329,0.358,0.405,0.492,0.191,0.249,0.298,0.278,0.326,0.213,0.902,1.1,0.879,0.687,0.29,0.292,0.316,0.267,0.237,0.196
NCI-H3122,0.106,0.0887,0.0804,0.0762,0.0832,0.114,0.116,0.115,0.0939,0.088,0.321,0.286,0.322,0.33,0.273,0.365,0.431,0.372,0.363,0.175
SK-MES-1,0.876,0.763,0.677,0.33,0.365,0.714,0.619,0.391,0.229,0.261,1.02,0.964,0.92,0.505,0.281,0.693,0.59,0.484,0.441,0.186
